These are literature values, as cited in patent US20250000898A1, “MAGNESIUM OXIDE-CONTAINING PHARMACEUTICAL COMPOSITION FOR TREATING PEDIATRIC CHRONIC FUNCTIONAL CONSTIPATION” (SETOLAS Holdings, Inc., priority 2021, published 2025).

Series [1] deals with children under 15 years of age diagnosed with chronic constipation. Particulars: for percentage of patients treated successfully for constipation (success rate for treatment of constipation): children under 15 years, median age 2 years 11 months, 3 weeks (magnesium oxide: 50 mg/kg per day, 20 of 49 cases; lactulose: 9 of 50 cases).
For series [2] the following is noted: 50 mg/kg daily, 3 weeks.

For the molecule `OC[C@H]1O[C@@H](O[C@@H]2[C@@H](CO)OC(O)(CO)[C@H]2O)[C@H](O)[C@@H](O)[C@H]1O` (mixture of isomers) [lactulose], the “percentage of patients treated successfully for constipation (success rate for treatment of constipation)” value in series [1] was 18%.
`[O]=[Mg]` [magnesium oxide powder, magnesium oxide]: the “percentage of patients treated successfully for constipation (success rate for treatment of constipation)” value in series [1] is 41%. The “average frequency of defecation” value in series [1] (second and third weeks after administration, 50 mg/kg daily in two divided doses, 3 weeks) was 5.5±3.15. Moreover, the “average stool status score (Bristol Stool Scale)” value in series [1] (second and third weeks after administration, 50 mg/kg daily, 3 weeks) was 4.90±0.91. In addition, the hypermagnesemia result in series [2] is recorded as “None of the patients exhibited hypermagnesemia”.
